Numbers after ± are expanded uncertainties.
Settings: 100 kPa, Liquid; for viscosity: Falling or rolling sphere viscometry; for mass density: Vibrating tube method

SMILES: OC1CCCC1 [cyclopentanol]
- viscosity (293.15 K): 11.72 ± 0.25 mPa·s
- mass density (293.15 K): 947.04 ± 0.57 kg/m3
- viscosity (298.15 K): 9.6 ± 0.2 mPa·s
- mass density (298.15 K): 943.08 ± 0.57 kg/m3
- viscosity (303.15 K): 7.891 ± 0.17 mPa·s
- mass density (303.15 K): 939.08 ± 0.57 kg/m3
- viscosity (308.15 K): 6.564 ± 0.14 mPa·s
- mass density (308.15 K): 935.03 ± 0.56 kg/m3
- viscosity (313.15 K): 5.509 ± 0.12 mPa·s
- mass density (313.15 K): 930.92 ± 0.56 kg/m3
- viscosity (318.15 K): 4.657 ± 0.099 mPa·s
- mass density (318.15 K): 926.76 ± 0.56 kg/m3
- viscosity (323.15 K): 3.97 ± 0.084 mPa·s
- mass density (323.15 K): 922.53 ± 0.56 kg/m3
- viscosity (328.15 K): 3.409 ± 0.072 mPa·s
- mass density (328.15 K): 918.24 ± 0.55 kg/m3
- viscosity (333.15 K): 2.945 ± 0.063 mPa·s
- mass density (333.15 K): 913.89 ± 0.55 kg/m3

SMILES: C1C[C@@H]2[C@H]3CC[C@H](C3)[C@@H]2C1 [exo-tetrahydrodicyclopentadiene]
- viscosity (293.15 K): 3.017 ± 0.068 mPa·s
- mass density (293.15 K): 935.88 ± 0.7 kg/m3
- viscosity (298.15 K): 2.731 ± 0.061 mPa·s
- mass density (298.15 K): 932 ± 0.69 kg/m3
- viscosity (303.15 K): 2.488 ± 0.056 mPa·s
- mass density (303.15 K): 928.08 ± 0.69 kg/m3
- viscosity (308.15 K): 2.273 ± 0.051 mPa·s
- mass density (308.15 K): 924.16 ± 0.69 kg/m3
- viscosity (313.15 K): 2.087 ± 0.047 mPa·s
- mass density (313.15 K): 920.24 ± 0.68 kg/m3
- viscosity (318.15 K): 1.922 ± 0.043 mPa·s
- mass density (318.15 K): 916.31 ± 0.68 kg/m3
- viscosity (323.15 K): 1.776 ± 0.04 mPa·s
- mass density (323.15 K): 912.38 ± 0.68 kg/m3
- viscosity (328.15 K): 1.646 ± 0.037 mPa·s
- mass density (328.15 K): 908.44 ± 0.68 kg/m3
- viscosity (333.15 K): 1.53 ± 0.034 mPa·s
- mass density (333.15 K): 904.5 ± 0.67 kg/m3

SMILES: CC12CC3CC(C1)CC(C)(C3)C2 [1,3-dimethyladamantane]
- viscosity (293.15 K): 3.75 ± 0.08 mPa·s
- mass density (293.15 K): 901.57 ± 0.55 kg/m3
- viscosity (298.15 K): 3.34 ± 0.071 mPa·s
- mass density (298.15 K): 898 ± 0.54 kg/m3
- viscosity (303.15 K): 2.997 ± 0.064 mPa·s
- mass density (303.15 K): 894.43 ± 0.54 kg/m3
- viscosity (308.15 K): 2.702 ± 0.057 mPa·s
- mass density (308.15 K): 890.86 ± 0.54 kg/m3
- viscosity (313.15 K): 2.45 ± 0.052 mPa·s
- mass density (313.15 K): 887.29 ± 0.54 kg/m3
- viscosity (318.15 K): 2.231 ± 0.047 mPa·s
- mass density (318.15 K): 883.71 ± 0.54 kg/m3
- viscosity (323.15 K): 2.039 ± 0.043 mPa·s
- mass density (323.15 K): 880.13 ± 0.53 kg/m3
- viscosity (328.15 K): 1.871 ± 0.04 mPa·s
- mass density (328.15 K): 876.55 ± 0.53 kg/m3
- viscosity (333.15 K): 1.722 ± 0.037 mPa·s
- mass density (333.15 K): 872.96 ± 0.53 kg/m3

— the NIST ThermoML archive (doi:10.1021/acs.jced.9b00074)
